Results on 16 compounds are retold here after ChEMBL document CHEMBL1201862, “PubChem BioAssay data set” (2004).

In one experiment the target is Steroidogenic factor 1 (Homo sapiens, UniProt Q13285). Put plainly: Counterscreen for inverse agonists of the liver receptor homolog-1 (LRH-1; NR5A2): Luminescence-based cell-based high throughput dose response assay to identify inverse agonists of the Steroidogenic Factor 1 Nuclear Receptor (SF1; NR5A1). The experiment is classed as functional. Background: The purpose of a counterscreen is to sort out artefacts and off-target activity.

Experiment [1] deals with Nuclear receptor subfamily 5 group A member 2 (Homo sapiens, UniProt O00482). The experiment is classed as functional, cell-based.
Experiment [2] in a line: nonselective StAR promoter luciferase inhibitors – cell-based, luminescence, luciferase reporter, counter-screen for LRH-1 inverse agonist project, dose response (AID 651969). The experiment is classed as functional. On the technique in general: A reporter such as luciferase makes a cellular process visible.
For a further experiment, the target named is Paired box protein Pax-8 (Homo sapiens, UniProt Q06710). The experiment is described as follows: PAX8 transcriptional activity inhibition in RMG-I – RMG-I cells, luciferase, cherry-pick, dose response (AID 687027).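 Also: luciferase reporter driven by Pax8 target thyroperoxidase promoter measured by SteadyGlo luminescence.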 The experiment is classed as functional, cell-based.
Experiment [3] in a line: OVCAR-3 cell viability loss – plate reader, dry powder samples, PAX8 inhibitor project, dose response (AID 743044). The experiment is classed as functional, cell-based.
Experiment [4] is described as follows: OVCAR8 cell viability loss – plate reader, dry powder samples, PAX8 project, dose response (AID 743197). The class given is functional, cell-based. The note with it: OVCAR-8.
The nature of experiment [5]: IGROV1 cell killing – plate reader, dry powder samples, PAX8 inhibitor project, dose response (AID 743043). Conditions: IGROV-1. The class given is functional, cell-based.
Experiment [6] can be described thus: general cell-killing toxicity readout – plate reader, dry powder samples, cytotoxicity control for PAX8 inhibitor project, dose response (AID 743021). The experiment is classed as functional, cell-based.
Another experiment deals with fMet-Leu-Phe receptor (Homo sapiens, UniProt P21462). The experiment is described as follows: formyl peptide receptor binders – dose response (AID 519). The class given is functional.
In experiment [7] the target is Mitogen-activated protein kinase 10 (Homo sapiens, UniProt P53779). The experiment is described as follows: Dose response biochemical screening assay for inhibitors of c-Jun N-Terminal Kinase 3 (JNK3). [Related pubchem assays: 746 ].
Another experiment addresses T1, Protein skinhead-1 (Caenorhabditis elegans, UniProt P34707).
T1 sequence (P34707 whole entry): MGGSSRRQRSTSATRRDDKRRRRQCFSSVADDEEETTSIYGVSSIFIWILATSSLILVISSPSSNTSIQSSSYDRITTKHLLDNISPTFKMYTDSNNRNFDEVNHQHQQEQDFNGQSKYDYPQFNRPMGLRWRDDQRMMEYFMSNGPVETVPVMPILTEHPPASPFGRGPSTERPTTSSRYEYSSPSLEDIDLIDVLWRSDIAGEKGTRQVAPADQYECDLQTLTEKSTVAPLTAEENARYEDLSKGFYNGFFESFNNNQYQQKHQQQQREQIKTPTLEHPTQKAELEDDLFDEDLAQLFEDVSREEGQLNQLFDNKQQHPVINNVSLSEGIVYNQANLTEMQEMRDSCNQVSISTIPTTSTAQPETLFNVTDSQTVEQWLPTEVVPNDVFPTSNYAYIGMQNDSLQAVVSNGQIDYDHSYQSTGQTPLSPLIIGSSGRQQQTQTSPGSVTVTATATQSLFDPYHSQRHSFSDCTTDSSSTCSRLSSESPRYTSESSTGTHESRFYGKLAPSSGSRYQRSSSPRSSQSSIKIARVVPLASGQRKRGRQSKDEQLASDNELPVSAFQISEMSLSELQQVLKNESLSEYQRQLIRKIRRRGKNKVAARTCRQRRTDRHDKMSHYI
The experiment is classed as functional.

Experiment [8] has as its target Fructose-bisphosphate aldolase (Mycobacterium tuberculosis, UniProt P9WQA3). The experiment is described as follows: Fluorescence-based biochemical high throughput dose response assay for inhibitors of the fructose-bisphosphate aldolase (FBA) of M. tuberculosis. The class given is functional.
A short description of experiment [9]: T. cruzi growth inhibition in host cells, dose response, cell-based, plate reader, dry powder, set 2 (AID 652275). The experiment is classed as functional.
Experiment [10] deals with T2, Disintegrin and metalloproteinase domain-containing protein 17 (Homo sapiens, UniProt P78536). Put plainly: exosite inhibitors of ADAM17, dose response, biochemical (AID 743260).
The nature of experiment [11]: potency of ADAM10 substrate cleavage blockers – biochemical, QFRET, dose response (AID 743254).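 Also: ADAM10 enzyme with the DM2 quenched FRET peptide as substrate; EDANS fluorescence gain as the protease cuts the substrate; inhibitor potency against ADAM10 proteolytic activity.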
Experiment [12] addresses T2, Disintegrin and metalloproteinase domain-containing protein 17. The experiment is described as follows: inhibition of ADAM17 substrate cleavage – biochemical, quenched FRET substrate, counter-screen for ADAM10 exosite inhibitor project, dose response (AID 743253).
Experiment [13] can be described thus: inhibition of ADAM10 peptide cleavage – biochemical, FRET peptide substrate, recombinant human ADAM10, selectivity assay for ADAM17 exosite inhibitor project, dose response (AID 743259).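 Also: ADAM10 enzyme cleaving a FRET peptide substrate.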
For experiment [14], the target named is T3, Trace amine-associated receptor 1 (Homo sapiens, UniProt Q96RJ0).
T3 sequence (Q96RJ0 whole entry): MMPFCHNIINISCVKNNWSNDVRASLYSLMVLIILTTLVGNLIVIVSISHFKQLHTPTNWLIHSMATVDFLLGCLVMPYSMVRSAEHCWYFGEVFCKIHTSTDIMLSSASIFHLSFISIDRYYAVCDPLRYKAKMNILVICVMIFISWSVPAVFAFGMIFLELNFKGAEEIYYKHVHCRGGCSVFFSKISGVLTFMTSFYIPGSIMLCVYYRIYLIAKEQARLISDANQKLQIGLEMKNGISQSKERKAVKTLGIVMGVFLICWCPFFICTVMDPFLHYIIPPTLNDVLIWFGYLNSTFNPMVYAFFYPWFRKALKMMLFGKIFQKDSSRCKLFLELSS
The experiment is described as follows: Fluorescence-based cell-based high throughput dose response assay to identify agonists of the human trace amine associated receptor 1 (TAAR1). The experiment is classed as functional.

The nature of experiment [15]: cells. The experiment is classed as functional, cell-based.
The target in experiment [16] is T3, Trace amine-associated receptor 1. The experiment is described as follows: Counterscreen for agonists of the human trace amine associated receptor 1 (hTAAR1): Fluorescence-based cell-based high throughput dose response assay to identify hTAAR1 agonist that also desensitize TAAR1 receptor response. The class given is functional.
The nature of experiment [17]: cells. The class given is functional, cell-based. The source holds these as a separate data set.
For experiment [18], the target named is T4, Corticotropin-releasing factor receptor 2/Corticotropin-releasing factor-binding protein (Homo sapiens, UniProt P24387+Q13324).
T4 sequence (Q13324 whole entry): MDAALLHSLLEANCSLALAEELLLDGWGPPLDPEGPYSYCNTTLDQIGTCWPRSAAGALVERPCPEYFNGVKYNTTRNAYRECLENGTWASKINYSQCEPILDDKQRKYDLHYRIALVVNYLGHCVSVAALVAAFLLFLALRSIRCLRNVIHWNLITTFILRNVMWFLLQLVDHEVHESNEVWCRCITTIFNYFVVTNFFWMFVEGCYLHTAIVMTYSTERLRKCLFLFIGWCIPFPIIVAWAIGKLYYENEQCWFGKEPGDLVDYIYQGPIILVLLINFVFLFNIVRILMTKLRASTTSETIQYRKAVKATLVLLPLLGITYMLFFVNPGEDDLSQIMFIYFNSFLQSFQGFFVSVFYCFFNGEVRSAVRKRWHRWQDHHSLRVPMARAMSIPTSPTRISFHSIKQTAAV
T4 sequence (P24387 whole entry): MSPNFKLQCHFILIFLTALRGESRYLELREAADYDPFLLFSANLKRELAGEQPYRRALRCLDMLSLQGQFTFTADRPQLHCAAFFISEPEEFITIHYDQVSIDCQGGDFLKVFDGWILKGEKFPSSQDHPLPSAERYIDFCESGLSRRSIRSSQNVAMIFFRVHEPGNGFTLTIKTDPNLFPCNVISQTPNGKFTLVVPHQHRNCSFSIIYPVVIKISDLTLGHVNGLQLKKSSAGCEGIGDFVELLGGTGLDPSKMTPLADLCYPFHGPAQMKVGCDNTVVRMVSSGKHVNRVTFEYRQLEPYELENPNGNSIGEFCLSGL
Put plainly: activators of CRF receptor 2 with binding protein – uHTS hits, confirmation (AID 602473). The experiment is classed as functional. Conditions: read-out: EC50_Mean.

Experiment [19] can be described thus: blockers of CRF-binding protein–CRF-R2 complex – cell-based, uHTS hits, 384-well, dose response (AID 651639). The experiment is classed as functional, Homo sapiens. The note with it: read-out: IC50_Mean.
The target in experiment [20] is T4, Corticotropin-releasing factor receptor 2/Corticotropin-releasing factor-binding protein. The experiment is described as follows: Dose Response confirmation of uHTS hits for small molecule antagonists of the CRF-binding protein and CRF-R2 receptor complex. The experiment is classed as functional. The note with it: read-out: IC50_Mean.
Experiment [21] in a line: HGIII-sPLA2 enzyme inhibition potency – biochemical, QFRET, IC50, dose response (AID 743457).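 Also: green fluorescence rise as the enzyme cleaves BODIPY PC-A2 in liposomes.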
The nature of experiment [22]: Luminescence Cell-Based Dose Confirmation HTS to Identify Activators of 5'UTR Stem-Loop Driven Alpha-Synuclein mRNA Translation in H4 Neuroglioblastoma Cells. [Related pubchem assays: 1829 (Project Summary), 1814 (Primary HTS)]. The class given is functional.
Experiment [23] in a line: cells. Conditions: HEK293.
A further experiment relates to H4. Put plainly: Luminescence Cell-Based Dose Response HTS to Identify Activators of 5'UTR Stem-Loop Driven Prion Protein mRNA Translation in H4 Neuroglioblastoma Cells. [Related pubchem assays: 1829 (Project Summary), 1814 (Primary HTS)]. The class given is functional. The note with it: Homo sapiens.
Experiment [24] can be described thus: cells. Conditions: A549.
The nature of experiment [25]: Luminescence Cell-Based Dose Response HTS to Identify Activators of Luciferase Translation or Activity in H4 […] Cells. [Related pubchem assays: 1829 (Project Summary), 1814 (Primary HTS)]. The class given is functional.

The source made the active and inactive calls.

T2 sequence (P78536 whole entry, the tested form may be a part): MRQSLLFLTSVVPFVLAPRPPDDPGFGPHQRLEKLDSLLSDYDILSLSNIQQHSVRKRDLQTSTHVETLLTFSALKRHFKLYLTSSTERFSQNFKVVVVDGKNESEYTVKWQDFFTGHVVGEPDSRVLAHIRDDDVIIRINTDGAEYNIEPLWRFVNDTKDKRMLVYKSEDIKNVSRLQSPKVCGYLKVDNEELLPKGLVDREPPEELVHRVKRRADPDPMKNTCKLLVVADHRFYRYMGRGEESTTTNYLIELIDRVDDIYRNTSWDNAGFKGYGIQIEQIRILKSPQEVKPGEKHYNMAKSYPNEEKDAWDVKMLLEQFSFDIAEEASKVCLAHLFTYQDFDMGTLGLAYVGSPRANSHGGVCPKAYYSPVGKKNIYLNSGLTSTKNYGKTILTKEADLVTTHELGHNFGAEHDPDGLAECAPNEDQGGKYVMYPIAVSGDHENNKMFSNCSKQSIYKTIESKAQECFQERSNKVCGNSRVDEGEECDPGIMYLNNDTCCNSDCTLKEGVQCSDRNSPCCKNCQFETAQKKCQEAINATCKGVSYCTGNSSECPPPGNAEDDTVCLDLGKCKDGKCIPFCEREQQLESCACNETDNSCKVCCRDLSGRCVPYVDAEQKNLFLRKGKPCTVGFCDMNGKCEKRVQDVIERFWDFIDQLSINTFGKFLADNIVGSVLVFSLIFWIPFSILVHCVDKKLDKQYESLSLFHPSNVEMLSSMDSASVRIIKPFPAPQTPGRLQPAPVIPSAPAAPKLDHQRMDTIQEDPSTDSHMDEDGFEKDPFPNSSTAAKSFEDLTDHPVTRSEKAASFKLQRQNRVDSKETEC
Paired box protein Pax-8, sequence (Q06710 whole entry): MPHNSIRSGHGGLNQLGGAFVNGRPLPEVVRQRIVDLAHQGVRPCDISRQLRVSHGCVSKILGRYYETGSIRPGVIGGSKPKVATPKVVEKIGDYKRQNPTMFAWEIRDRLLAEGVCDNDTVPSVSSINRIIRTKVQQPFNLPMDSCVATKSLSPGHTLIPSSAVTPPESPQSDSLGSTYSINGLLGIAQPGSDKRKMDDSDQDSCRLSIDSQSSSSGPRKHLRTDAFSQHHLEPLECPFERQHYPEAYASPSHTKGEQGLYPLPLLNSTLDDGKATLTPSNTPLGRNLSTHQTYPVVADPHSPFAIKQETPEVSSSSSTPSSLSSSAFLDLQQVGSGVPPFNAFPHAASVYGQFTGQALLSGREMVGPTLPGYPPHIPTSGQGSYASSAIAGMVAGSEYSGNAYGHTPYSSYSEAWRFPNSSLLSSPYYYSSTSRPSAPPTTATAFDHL
Fructose-bisphosphate aldolase, sequence (P9WQA3 whole entry): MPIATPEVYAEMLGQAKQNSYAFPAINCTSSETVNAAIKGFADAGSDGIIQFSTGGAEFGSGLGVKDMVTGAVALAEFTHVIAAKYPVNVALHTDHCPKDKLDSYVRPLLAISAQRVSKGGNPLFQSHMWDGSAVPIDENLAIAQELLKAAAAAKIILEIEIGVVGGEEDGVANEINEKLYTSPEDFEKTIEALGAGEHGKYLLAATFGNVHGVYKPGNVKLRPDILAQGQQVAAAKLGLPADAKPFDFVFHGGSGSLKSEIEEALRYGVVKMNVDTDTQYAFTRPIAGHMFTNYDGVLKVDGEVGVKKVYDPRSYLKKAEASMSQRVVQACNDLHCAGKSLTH
Steroidogenic factor 1, sequence (Q13285 whole entry): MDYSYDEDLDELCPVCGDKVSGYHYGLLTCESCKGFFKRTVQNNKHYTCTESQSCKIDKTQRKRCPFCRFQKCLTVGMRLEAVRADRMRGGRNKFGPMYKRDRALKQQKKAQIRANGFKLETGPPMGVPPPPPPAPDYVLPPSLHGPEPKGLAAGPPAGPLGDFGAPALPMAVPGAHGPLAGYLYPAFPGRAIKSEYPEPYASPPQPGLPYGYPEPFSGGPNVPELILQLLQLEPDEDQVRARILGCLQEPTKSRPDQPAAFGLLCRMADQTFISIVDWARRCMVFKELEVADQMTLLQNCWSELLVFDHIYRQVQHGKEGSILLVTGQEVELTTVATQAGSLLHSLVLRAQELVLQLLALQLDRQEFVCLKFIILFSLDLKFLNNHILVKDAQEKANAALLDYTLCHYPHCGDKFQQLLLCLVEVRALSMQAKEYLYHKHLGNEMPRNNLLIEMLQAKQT
Nuclear receptor subfamily 5 group A member 2, sequence (O00482 whole entry): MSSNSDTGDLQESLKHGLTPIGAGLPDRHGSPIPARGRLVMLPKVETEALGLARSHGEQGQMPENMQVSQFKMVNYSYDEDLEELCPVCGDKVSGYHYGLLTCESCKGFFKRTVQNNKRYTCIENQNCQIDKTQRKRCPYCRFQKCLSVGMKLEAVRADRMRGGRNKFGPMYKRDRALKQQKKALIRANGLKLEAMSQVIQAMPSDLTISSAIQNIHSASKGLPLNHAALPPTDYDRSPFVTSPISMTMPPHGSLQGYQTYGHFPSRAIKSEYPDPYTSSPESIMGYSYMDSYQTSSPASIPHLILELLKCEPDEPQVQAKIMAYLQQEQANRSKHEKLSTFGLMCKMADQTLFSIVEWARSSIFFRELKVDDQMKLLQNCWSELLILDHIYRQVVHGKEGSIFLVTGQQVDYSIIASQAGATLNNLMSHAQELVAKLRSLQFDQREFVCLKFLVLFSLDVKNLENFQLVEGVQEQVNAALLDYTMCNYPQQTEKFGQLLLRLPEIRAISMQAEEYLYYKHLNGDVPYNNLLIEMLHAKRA
fMet-Leu-Phe receptor, sequence (P21462 whole entry): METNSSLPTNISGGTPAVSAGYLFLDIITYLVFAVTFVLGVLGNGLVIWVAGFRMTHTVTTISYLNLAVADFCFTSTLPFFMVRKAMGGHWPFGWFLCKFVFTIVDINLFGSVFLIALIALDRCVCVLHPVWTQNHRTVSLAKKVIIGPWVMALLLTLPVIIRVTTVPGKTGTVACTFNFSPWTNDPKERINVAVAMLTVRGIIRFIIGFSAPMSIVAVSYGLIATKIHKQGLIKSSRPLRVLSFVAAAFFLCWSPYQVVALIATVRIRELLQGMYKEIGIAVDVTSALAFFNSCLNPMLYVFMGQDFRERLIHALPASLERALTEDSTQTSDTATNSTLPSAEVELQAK
Mitogen-activated protein kinase 10, sequence (P53779 whole entry): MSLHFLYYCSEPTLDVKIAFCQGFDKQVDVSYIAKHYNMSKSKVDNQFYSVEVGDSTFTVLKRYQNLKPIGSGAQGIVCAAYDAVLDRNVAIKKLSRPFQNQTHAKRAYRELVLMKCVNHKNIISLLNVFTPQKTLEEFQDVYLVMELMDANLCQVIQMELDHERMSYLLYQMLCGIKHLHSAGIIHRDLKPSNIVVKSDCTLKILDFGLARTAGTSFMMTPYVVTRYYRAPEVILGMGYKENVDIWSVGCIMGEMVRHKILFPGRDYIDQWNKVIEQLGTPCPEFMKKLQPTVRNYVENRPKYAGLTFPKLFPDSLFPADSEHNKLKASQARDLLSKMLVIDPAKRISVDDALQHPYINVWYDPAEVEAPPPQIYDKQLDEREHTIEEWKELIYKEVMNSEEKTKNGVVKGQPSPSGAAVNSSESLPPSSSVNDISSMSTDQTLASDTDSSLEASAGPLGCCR

Turning to `Cc1cc(Br)ccc1NC(=O)CN1C(=O)C2CC=CCC2C1=O` (stereo unspecified), the IC50 on Steroidogenic factor 1 was 0.105 µM (active); in experiment [1], 0.169 µM (active); in experiment [2], 35.9 µM (inactive).
One may read the AC50 as the concentration giving half of the maximal activity seen. In the case of `C[C@H](CO)N1C[C@H](C)[C@H](CN(C)Cc2ccc(C(F)(F)F)cc2)OCCCC[C@H](C)Oc2ccc(NS(=O)(=O)c3ccccc3)cc2C1=O`, the AC50 is 9.01 µM (active) on Paired box protein Pax-8; 45 µM (active) in experiment [3]; 48.9 µM (active) in experiment [4]; 55.8 µM (active) in experiment [5]; 55.7 µM (active) in experiment [6].
In general, Ki refers to a measure of affinity in units of concentration, obtained from inhibition or displacement. On to `COc1ccc(C(=O)C2=C(O)C(=O)N(CCN3CCOCC3)C2c2ccc(C)cc2)cc1` (stereo unspecified), for which the Ki on fMet-Leu-Phe receptor was > 66.7 µM (inactive).
With `O=C(Nc1ccc(-c2nc3cccnc3s2)cc1)c1ccco1`, the IC50 in [7] is > 93.1 µM (not active); at Protein skinhead-1, 83.1 µM (inactive); in experiment [8], 1.32 µM (active).
Turning to `CN(C)C(=O)c1ccc(-c2ccc([C@H]3[C@H](CO)N4CCCCN(Cc5cncnc5)C[C@@H]34)cc2)cc1`, the half-maximal activity concentration (AC50) in [9] is 0.472 µM (active).
As for `O=C(CSc1ccc(Cl)cc1Cl)N1CCC(c2nc3ccccc3s2)CC1`, the IC50 in [10] is > 69.5 µM (inactive); in [11], 22.1 µM (inactive); in experiment [12], > 69.5 µM (inactive); in [13] it was 18.8 µM (inactive).
Consider `OCc1ccc2c(c1)c(-c1ccc3c(c1)OCCO3)c(-c1ccccc1)n2-c1ccccc1`, for which, in experiment [8], the IC50 is 0.913 µM (active).
For the compound `C[C@@H]1CN([C@@H](C)CO)C(=O)Cc2cc(NC(=O)Nc3ccc4c(c3)OCO4)ccc2O[C@H]1CN(C)CC1CCCCC1`, the figures for the AC50 (on Paired box protein Pax-8; in experiment [3]; in [5]) were 9.15 µM (active), 37 µM (active) and 58.1 µM (active), respectively.
Consider `CC(=O)c1ccc(NC(=O)Nc2ccccc2)cc1`, for which the EC50 was 3.14 µM (active) in [14] and > 29.9 µM (inactive) in “cells [15]”. Besides, the figures for the IC50 (in experiment [16]; in the experiment “cells [17]”) were > 3.32 µM (active) and 29.8 µM (inactive), respectively.
Turning to `O=S(=O)(Nc1cc(Cl)ccc1-n1cncn1)c1ccccc1Cl`, the EC50 in experiment [18] was > 53 µM (inactive). The figures for the IC50 in [19] and in experiment [20] were > 20 µM (inactive) and 32.6 µM (active), respectively.
In the same order, the values of `COc1cccc(CN2C(=O)C(C)N(C(=O)c3ccccc3)c3ccccc32)c1` (stereo unspecified) are > 53 µM (inactive), 9.26 µM (active) and 26.9 µM (active).
Take `C=CCC[C@@H](Cc1ccc(F)cc1)C(=O)OC[C@@H](NC(=O)[C@H](CC=C)CC(=O)N(CCO)Cc1ccccc1)c1ccccc1`: the IC50 in experiment [11] is 27.4 µM (inactive); in experiment [12], > 69.5 µM (inactive).
For the compound `O=C(COc1ccc2c3c(c(=O)oc2c1)CCC3)NCc1ccncc1`, the IC50 (at Steroidogenic factor 1; in [1]; in [2]) was 35.9 µM (inactive) each time.
`Cn1cccc1CC(=O)NN=C(S)Nc1ccccc1Cl`: the IC50 in [21] is > 122 µM (inactive).
Regarding `COC(=O)c1cc(=O)n(Cc2ccc3c(c2)OCO3)/c(=N/c2ccc(F)c(Cl)c2)s1`, the EC50 in experiment [22] was 10.4 µM (active); with H4, > 120 µM (not active); in experiment [25] it was > 120 µM (not active). Also, the results for the half-maximal activity concentration (AC50) in the experiment “cells [23]” and in “cells [24]” were 20 µM (active) and 23.3 µM (active), respectively.
Turning to `Cc1cc(O)nc(Nc2cccc(F)c2)n1`, the EC50 in experiment [14] is 8.54 µM (active); in “cells [15]”, > 29.9 µM (inactive). Further, the IC50 (in [16]; in the experiment “cells [17]”) was > 29.9 µM (inactive) each time.
